# Legend:
# CLL patients = assay: Phase III trial in CLL patients, R-FC vs FC: progression free survival (PFS) by pretreatment biomarker expression in CD19+ PBMC; type: in vivo, human; settings: for Median PFS PTK2 Exon 1.0 ST / Median PFS PTK2 U133 plus2.0 / Median PFS PTK2 qRT-PCR / Median PFS miRNA151 DISCOVARRAY / Median PFS miRNA151 qRT-PCR / Median PFS miRNA409 DISCOVARRAY / Median PFS miRNA409 qRT-PCR: CLL patients; for Median PFS PTK2 Exon 1.0 ST / Median PFS PTK2 U133 plus2.0 / Median PFS PTK2 qRT-PCR: PTK2 expression in CD19+ cells
# Procedure: Pretreatment patient samples were analyzed from an international, multicenter, open-label, phase III trial, randomizing CLL patients to receive R-FC (rituximab plus fludarabine/cyclophosphamide) or FC (fludarabine/cyclophosphamide) alone. […] The study protocol was approved by institutional review boards at participating centers and all patients gave written informed consent. Details on trial design and eligibility criteria have been described in Robak et al. J. Clin. Oncol. 28(10):1756-1765 (2010). Patients were selected on the availability of RNA and the written informed consent to participate in molecular genetic analyses of peripheral blood samples.
# Pretreatment Peripheral Blood Mononuclear Cell (PBMC) samples positively selected for CD19+ cells were available from n=301 patients. CD19 separation was performed by magnetic bead separation according to the manufacturer's protocol (Miltenyi, Germany).
# Pretreatment clinical features i.e demographics, prognostic markers (cytogenetic aberrations like del(17p), del(11q), ZAP70 and CD38 expression, IgVH status), progression free survival (PFS) were compared using the Fisher's exact, Mann-Whitney, or log-rank tests. A p-value of <0.05 was considered statistically significant.
# Two approaches using a Cox regression model were used to identify genes and miRNA associated with survival. First approach considered the models below.
# For the different tables and graphs appearing in this document where median PFS was computed, mRNA and miRNA signal intensities were dichotomized using the median value as a cutoff.
# [1] = test system: 3′UTR luciferase reporter constructs in HeLa cells; assay: 3′UTR luciferase reporter assay with miRNA151 3p mimic vs scrambled mimic; type: cell-based; settings: 10 nM mimic, 24 hours post-transfection, normalized to scrambled control
# Procedure: Predicted targets were downloaded from TARGETSCAN 5.1™ (http://www.targetscan.org/) and expression was extracted from the mRNA expression profiling data, irrespective of predicted site conservation. Anti-correlations with miRNAs were determined by comparing miRNA array and mRNA array data and computing Pearson correlation coefficients. […] Subsequently, 3′UTRs that met this threshold were cloned upstream into 3′UTR luciferase reporter constructs (Switchgear Genomics) and 100 ng of each construct was transfected into HeLa cells (ATCC) with 25 ng pRL-CMV, 10 nM miRNA151 3p mimic (Dharmacon) or scrambled mimic in 96-well plates. Luciferase activity was determined 24 hours post-transfection and all data were normalized to renilla luciferase transfection control and scrambled control mimic. Three biological replicates were performed. Statistical significance for a difference between scrambled control and miRNA151 3p mimic was determined by a 2-sided Student's t-test.
# [2] = miRNA signal < median miRNA signal
# [3] = miRNA signal > median miRNA signal
substance,measurement,setting,value
fludarabine/cyclophosphamide [FC],"HR for PFS, miRNA151 < median vs > median within treatment arm",CLL patients; Array,0.99
same,"HR for PFS, miRNA409 < median vs > median within treatment arm",CLL patients; Array,1.12
same,Median PFS PTK2 Exon 1.0 ST,CLL patients; gene < median,17.9 months
same,Median PFS PTK2 U133 plus2.0,CLL patients; gene < median,17.9 months
same,Median PFS PTK2 qRT-PCR,CLL patients; gene < median,17.9 months
same,Median PFS PTK2 Exon 1.0 ST,CLL patients; gene > median,21.5 months
same,Median PFS PTK2 U133 plus2.0,CLL patients; gene > median,21.5 months
same,Median PFS PTK2 qRT-PCR,CLL patients; gene > median,21.5 months
same,Median PFS miRNA151 DISCOVARRAY,CLL patients; [2],18 months
same,Median PFS miRNA151 qRT-PCR,CLL patients; [2],17.9 months
same,Median PFS miRNA409 DISCOVARRAY,CLL patients; [2],21.6 months
same,Median PFS miRNA409 qRT-PCR,CLL patients; [2],18.3 months
same,Median PFS miRNA151 DISCOVARRAY,CLL patients; [3],18.5 months
same,Median PFS miRNA151 qRT-PCR,CLL patients; [3],20.7 months
same,Median PFS miRNA409 DISCOVARRAY,CLL patients; [3],18 months
same,Median PFS miRNA409 qRT-PCR,CLL patients; [3],18.3 months
same,"HR for PFS, PTK2 < median vs > median within treatment arm","CLL patients; Exon 1.0 ST, CD19+ cells",0.86
same,"HR for PFS, miRNA151 < median vs > median within treatment arm",CLL patients; RT-PCR,0.84
same,"HR for PFS, miRNA409 < median vs > median within treatment arm",CLL patients; RT-PCR,1.03
same,"HR for PFS, PTK2 < median vs > median within treatment arm","CLL patients; U133 + 2, CD19+ cells",0.86
same,"HR for PFS, PTK2 < median vs > median within treatment arm","CLL patients; qRT-PCR, CD19+ cells",0.77
"miRNA151 3p: miRNA151 3p mimic (Dharmacon); miRNA comprising the sequence CUAGACUGAAGCUCCUUGAGG (SEQ ID NO: 1) (synthetic mimic duplex, passenger strand not listed, further chemistry not given here; listed as Homo sapiens)",3′UTRs showing a statistically significant reduction in luciferase activity (5 out of the 18),[1],28%

# From patent US20140017230A1, “CHRONIC LYMPHOCYTIC LEUKEMIA (CLL) BIOMARKERS” (HOFFMANN-LAROCHE INC., priority 2011, published 2014)
